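GI50: concentration for 50% inhibition of growth. TGI: concentration producing complete growth inhibition.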
Tests used:
Experiment in all cases: NCI tumour cell line growth inhibition, 384-well format
[1] = system: RXF 393 renal
[2] = system: RPMI-8226 leukemia
[3] = system: COLO 205 colon
[4] = system: SW-620 colon
[5] = system: NCI-H322M lung
[6] = system: IGROV1 ovarian
[7] = system: LOX IMVI melanoma
[8] = system: CCRF-CEM leukemia
[9] = system: SK-OV-3 ovarian
[10] = system: PC-3 prostate
[11] = system: SNB-75 CNS
[12] = system: SK-MEL-28 melanoma
[13] = system: SNB-19 CNS
[14] = system: HOP-62 NSCLC
[15] = system: MDA-MB-435 melanoma
[16] = system: U251 glioblastoma
[17] = system: NCI/ADR-RES ovarian
[18] = system: UO-31 renal
[19] = system: EKVX NSCLC
[20] = system: UACC-62 melanoma
[21] = system: HOP-92 NSCLC
[22] = system: K-562 leukemia
[23] = system: HCT-116 colon
[24] = system: NCI-H460 NSCLC
[25] = system: MOLT-4 leukemia
[26] = system: M14 melanoma
[27] = system: OVCAR-5 ovarian
[28] = system: SF-268 CNS
[29] = system: HS 578T breast
[30] = system: MDA-MB-468 breast
[31] = system: SF-539 CNS
[32] = system: BT-549 breast
[33] = system: DU-145 prostate
[34] = system: OVCAR-3 ovarian
[35] = system: A549 NSCLC
[36] = system: UACC-257 melanoma
[37] = system: HCT-15 colon
[38] = system: SF-295 CNS
[39] = system: HL-60(TB) leukemia
[40] = system: MALME-3M melanoma
[41] = system: NCI-H522 lung
[42] = system: MDA-MB-231 breast
[43] = system: A498 renal
[44] = system: OVCAR-8 ovarian
[45] = system: HCC-2998 colon
[46] = system: ACHN renal
[47] = system: 786-0 renal
[48] = system: SK-MEL-5 melanoma
[49] = system: NCI-H23 lung
[50] = system: CAKI-1 renal
[51] = system: SN12C renal
[52] = system: NCI-H226 lung
[53] = system: MCF7 breast
[54] = system: OVCAR-4 ovarian
[55] = system: TK-10 renal
[56] = system: HT29 colon
[57] = system: SR leukemia
[58] = system: KM12 colon
[59] = system: T-47D breast
[60] = system: SK-MEL-2 melanoma

N#CCCNc1nonc1-c1nc2ccccc2n1CC(=O)c1ccc(NC(=O)[C@@H](N)CCCCN)cc1
GI50 [1]: 20.8 nM
TGI [1]: 53 nM
GI50 [2]: 19.2 nM
TGI [2]: 35.4 nM
GI50 [3]: 27.8 nM
TGI [3]: 78.3 nM
GI50 [4]: 42.4 nM
TGI [4]: 88400 nM
GI50 [5]: 73 nM
TGI [5]: > 100000 nM
GI50 [6]: 43.5 nM
TGI [6]: > 100000 nM
GI50 [7]: 46 nM
TGI [7]: 407 nM
GI50 [8]: 18.3 nM
TGI [8]: 33.1 nM
GI50 [9]: 39.9 nM
TGI [9]: 16200 nM
GI50 [10]: 38.9 nM
TGI [10]: 948 nM
GI50 [11]: 38.7 nM
TGI [11]: 66600 nM
GI50 [12]: 78.1 nM
TGI [12]: 46300 nM
GI50 [13]: 37 nM
TGI [13]: > 100000 nM
GI50 [14]: 38.8 nM
TGI [14]: 1020 nM
GI50 [15]: 19.4 nM
TGI [15]: 38.3 nM
GI50 [16]: 32.8 nM
TGI [16]: 148 nM
GI50 [17]: 18.2 nM
TGI [17]: 35.1 nM
GI50 [18]: 60.1 nM
TGI [18]: 11300 nM
GI50 [19]: 54.5 nM
TGI [19]: > 100000 nM
GI50 [20]: 31 nM
TGI [20]: 344 nM
GI50 [21]: 51.5 nM
TGI [21]: 884 nM
GI50 [22]: 18.7 nM
TGI [22]: 38.8 nM
GI50 [23]: 33.3 nM
TGI [23]: 192 nM
GI50 [24]: 22.1 nM
TGI [24]: 47.3 nM
GI50 [25]: 16.8 nM
TGI [25]: 31.1 nM
GI50 [26]: 19.9 nM
TGI [26]: 46.5 nM
GI50 [27]: 120 nM
TGI [27]: > 100000 nM
GI50 [28]: 13.6 nM
TGI [28]: 47.4 nM
GI50 [29]: 17.4 nM
TGI [29]: 36.9 nM
GI50 [30]: 19.9 nM
TGI [30]: 46.1 nM
GI50 [31]: 20 nM
TGI [31]: 45.7 nM
GI50 [32]: 22.2 nM
TGI [32]: 54 nM
GI50 [33]: 37.5 nM
TGI [33]: 640 nM
GI50 [34]: 19.9 nM
TGI [34]: 45.7 nM
GI50 [35]: 36.9 nM
TGI [35]: > 100000 nM
GI50 [36]: 59.1 nM
TGI [36]: 22600 nM
GI50 [37]: 30 nM
TGI [37]: 103 nM
GI50 [38]: 26.3 nM
TGI [38]: 71.4 nM
GI50 [39]: 20.7 nM
TGI [39]: 35.8 nM
GI50 [40]: 34.8 nM
TGI [40]: 163 nM
GI50 [41]: 17.7 nM
TGI [41]: 37 nM
GI50 [42]: 135 nM
TGI [42]: 78600 nM
GI50 [43]: 30.6 nM
TGI [43]: > 100000 nM
GI50 [44]: 32 nM
TGI [44]: 117 nM
GI50 [45]: 24.9 nM
TGI [45]: 74.1 nM
GI50 [46]: 63.6 nM
TGI [46]: > 100000 nM
GI50 [47]: 36.3 nM
TGI [47]: 422 nM
GI50 [48]: 20.9 nM
TGI [48]: 57.1 nM
GI50 [49]: 21.8 nM
TGI [49]: 52.6 nM
GI50 [50]: 41.1 nM
TGI [50]: > 100000 nM
GI50 [51]: 45.2 nM
TGI [51]: 2170 nM
GI50 [52]: 90.3 nM
TGI [52]: 41900 nM
GI50 [53]: 39.4 nM
TGI [53]: 3270 nM
GI50 [54]: 86.1 nM
TGI [54]: 66300 nM
GI50 [55]: 83.4 nM
TGI [55]: 93000 nM

COc1cc2c(cc1F)C(c1ccccc1Cl)=Nc1c(n[nH]c1C)N2
GI50 [1]: 207 nM
TGI [1]: 1230 nM
GI50 [2]: 253 nM
TGI [2]: 7320 nM
GI50 [3]: 367 nM
TGI [3]: 12100 nM
GI50 [4]: 336 nM
TGI [4]: 11100 nM
GI50 [5]: 4440 nM
TGI [5]: 19900 nM
GI50 [6]: 679 nM
TGI [6]: 9690 nM
GI50 [56]: 313 nM
TGI [56]: 12500 nM
GI50 [7]: 528 nM
TGI [7]: 8780 nM
GI50 [8]: 145 nM
TGI [8]: 288 nM
GI50 [9]: 757 nM
TGI [9]: 16400 nM
GI50 [10]: 709 nM
TGI [10]: 21100 nM
GI50 [11]: 320 nM
TGI [11]: 1390 nM
GI50 [12]: 778 nM
TGI [12]: 18600 nM
GI50 [13]: 726 nM
TGI [13]: 15100 nM
GI50 [14]: 521 nM
TGI [14]: 14100 nM
GI50 [16]: 453 nM
TGI [16]: 12300 nM
GI50 [17]: 304 nM
TGI [17]: 16000 nM
GI50 [18]: 781 nM
TGI [18]: 2080 nM
GI50 [19]: 597 nM
TGI [19]: 13800 nM
GI50 [20]: 334 nM
TGI [20]: 12000 nM
GI50 [21]: 960 nM
TGI [21]: 8170 nM
GI50 [22]: 252 nM
TGI [22]: 13600 nM
GI50 [23]: 393 nM
TGI [23]: 15100 nM
GI50 [57]: 103 nM
TGI [57]: 238 nM
GI50 [25]: 146 nM
TGI [25]: 283 nM
GI50 [26]: 339 nM
TGI [26]: 15900 nM
GI50 [27]: 5320 nM
TGI [27]: 19800 nM
GI50 [28]: 370 nM
TGI [28]: 1770 nM
GI50 [29]: 190 nM
TGI [29]: 464 nM
GI50 [30]: 180 nM
TGI [30]: 387 nM
GI50 [31]: 351 nM
TGI [31]: 1500 nM
GI50 [32]: 231 nM
TGI [32]: 1080 nM
GI50 [33]: 2020 nM
TGI [33]: 13000 nM
GI50 [34]: 225 nM
TGI [34]: 823 nM
GI50 [35]: 599 nM
TGI [35]: 15600 nM
GI50 [36]: 11400 nM
TGI [36]: 23500 nM
GI50 [37]: 304 nM
TGI [37]: 19500 nM
GI50 [38]: 452 nM
TGI [38]: 16200 nM
GI50 [39]: 166 nM
TGI [39]: 306 nM
GI50 [40]: 12600 nM
TGI [40]: 25200 nM
GI50 [58]: 274 nM
TGI [58]: 12100 nM
GI50 [41]: 202 nM
TGI [41]: 506 nM
GI50 [42]: 650 nM
TGI [42]: 16800 nM
GI50 [43]: 498 nM
TGI [43]: 17200 nM
GI50 [45]: 108 nM
TGI [45]: 16700 nM
GI50 [46]: 1350 nM
TGI [46]: 13300 nM
GI50 [47]: 508 nM
TGI [47]: 11900 nM
GI50 [48]: 236 nM
TGI [48]: 12000 nM
GI50 [49]: 690 nM
TGI [49]: 16500 nM
GI50 [50]: 512 nM
TGI [50]: 4160 nM
GI50 [51]: 632 nM
TGI [51]: 14200 nM
GI50 [52]: 688 nM
TGI [52]: 2660 nM
GI50 [59]: 794 nM
TGI [59]: 17700 nM
GI50 [53]: 502 nM
TGI [53]: 19800 nM
GI50 [60]: 459 nM
TGI [60]: 4310 nM
GI50 [54]: 2260 nM
TGI [54]: 19800 nM
GI50 [55]: 860 nM
TGI [55]: 10300 nM
